The text below walks through data of US6723702B2, “Use of relaxin treat diseases related to vasoconstriction” (RAS Medical, Inc., priority 2000, dated 2004).

For one data set, the system named is conscious rats. Nature of the data set: Acute infusion of ANG II during chronic infusion of purified porcine RLX. The class given is in vivo, rat. The settings on record: for ERPF / ERVR / GFR / MAP: RLX 4 μg/h s.c. day 5. As for the experimental part:
At least 7 days after the implantation of vascular and bladder catheters, osmotic minipumps containing either porcine RLX (4 μg/hour) or vehicle (Ringer's solution) were implanted in intact, female rats (n=7 and 6 rats, respectively). Renal function and MAP were measured on day 5 of relaxin infusion (three 30-minute urine and midpoint blood collections). Next, an infusion of L-NAME (2 μg/minute, a substrate competitive inhibitor of NO synthase) was administered intravenously (i.v.) by infusion pump (Model 200, KD Scientific, Boston, Mass.). Four 1-hour urine collections with midpoint blood samples were collected for the assessment of GFR, ERPF, and ERVR during the L-NAME administration. Identical procedures were performed on additional animals chronically administered porcine RLX (n=5) or vehicle (n=5), except that ANG II (3 ng/minute) was infused rather than L-NAME. Finally, another four, age-matched control rats were administered Ringer's solution instead of either L-NAME or ANG II on day 5 of porcine RLX infusion.
To minimize the possibility that the convergence of renal function in the relaxin and vehicle infused rats elicited by L-NAME was merely a consequence of nonspecific renal vasoconstriction, the experimental paradigm was repeated using another vasoconstrictor, ANG II. Values are provided as mean±SEM. Relaxin, RLX; Angiotensin II, ANG II. ANG II was infused at 3 ng/min i.v., and RLX at 4 μg/h by osmotic minipump s.c. There were five rats each in the RLX and vehicle groups. *p<0.05 vs baseline, Hp<0.05 RLX vs vehicle.

The nature of data set [1]: Serum rhRLX, quantitative sandwich immunoassay (Example 2). The class given is in vivo, rat. To be noted: 4 μg/hour. From the text:
The technique of urine collection has proven to be reliable. Conrad and Colpoys (1986) J. Clin. Invest. 77:236-245; Danielson and Conrad (1995) J. Clin. Invest. 96:482-490; and Danielson and Conrad (1996) Circ. Res. 79:1161-1166. Indeed, after reaching steady-state in this study, the excretion rates of IN and PAH were 91±3 and 100±4% of their respective infusions. After measuring baseline mean arterial pressure and renal function, an osmotic minipump (model 2ML1, Alza Co., Palo Alto Calif.) containing either recombinant human relaxin (rhRLX; n=12 rats) or vehicle (n=7) was implanted subcutaneously on the back using light ether anesthesia. […] Five days later, mean arterial pressure (MAP), glomerular filtration rate (GFR), effective renal plasma flow (ERPF), and other parameters were again assessed as describe above. At this time, the excretion rates of IN and PAH were 91±3 and 98±2% of their respective infusion rates. […]
Inulin concentration in plasma and urine was measured by the anthrone method, and PAH was determined by the method of Bratton and Marshall as modified by Smith. […] Plasma sodium was measured by a Kodak Ektachem Instrument (Rochester, N.Y.). Plasma osmolality was determined by freezing point depression (Advanced Osmometer, Model 3MO, Advanced Instruments, Needham Heights Mass.). […] The rhRLX in serum was measured using a quantitative sandwich immunoassay, again in a blinded fashion. […]

The test system of data set [2] is Rat aortic adventitial fibroblasts. Nature of the data set: Collagen and fibronectin expression by adventitial fibroblasts. Format: cell-based. To be noted: rhRlx 10 ng/ml. The protocol:
Aortic adventitial fibroblasts from normal adult Sprague/Dawley rats were explanted by carefully dissecting the adventitia away from the media and culturing 1 mm^3 pieces in Dulbecco's modified Eagles Medium (DMEM), plus 10% bovine fetal calf serum. When cultures were confluent, fibroblasts were dispersed with trypsin and passaged once prior to use in experiments. Fibroblasts were seeded at 10^5 cells/cm^2 in DMEM+10% FBS in 48-well plates for experiments and assayed for collagen and fibronectin expression, as previously described (Unemori et al. (1996) J. Clin. Invest. 98:2739-2745). […] Half of the cultures were also treated simultaneously with 10 ng/ml of rhRlx. Proteins were biosynthetically labeled with ^3H-proline (25 μCi/ml) (Amersham Corp., Arlington Heights, Ill.), in the presence of ascorbate (50 μg/ml) and β-aminopropionitrile (80 μg/ml), and conditioned media collected 24 hours later. Media were electrophoresed on SDS-PAGE, and the density of collagen and fibronectin bands was determined by densitometric scanning using a digital imaging system (Alpha Innotech Corp, San Leandro, Calif.).

Turning to “Porcine RLX: lyophilized, purified porcine relaxin (Sherwood and O'Byrne 1974), dissolved in Ringer's solution”, the ERPF in the data set on conscious rats (ANG II 3 ng/min i.v., 60 min) amounted to 8926; with conscious rats (ANG II 3 ng/min i.v., 120 min), 9646; in the data set on conscious rats (ANG II 3 ng/min i.v., 180 min) it was 7738; in the data set with conscious rats (ANG II 3 ng/min i.v., 240 min) it was 7698; in the data set on conscious rats (Baseline before ANG II), 10364. The ERVR in the data set on conscious rats (ANG II 3 ng/min i.v., 60 min) came to 8.88; with conscious rats (ANG II 3 ng/min i.v., 120 min), 9.24; in the data set with conscious rats (ANG II 3 ng/min i.v., 180 min) it was 11.52; with conscious rats (ANG II 3 ng/min i.v., 240 min), 11.84; with conscious rats (Baseline before ANG II), 6.23. In addition, the GFR was 2980 with conscious rats (ANG II 3 ng/min i.v., 60 min); 2653 with conscious rats (ANG II 3 ng/min i.v., 120 min); 2578 in the data set with conscious rats (ANG II 3 ng/min i.v., 180 min); 2763 with conscious rats (ANG II 3 ng/min i.v., 240 min); 2929 with conscious rats (Baseline before ANG II). The MAP in the data set on conscious rats (ANG II 3 ng/min i.v., 60 min) is given as 130; in the data set with conscious rats (ANG II 3 ng/min i.v., 120 min), 142; in the data set with conscious rats (ANG II 3 ng/min i.v., 180 min), 143; with conscious rats (ANG II 3 ng/min i.v., 240 min) it was 146; in the data set with conscious rats (Baseline before ANG II), 111. In the data set on conscious rats (RLX treated vs vehicle infused rats), the “percent increase in MAP and reduction in GFR elicited by ANG II” value is given as “comparable”. Moreover, the “percent increase in ERVR and reduction in ERPF elicited by ANG II” value in the data set with conscious rats (chronic relaxin vs vehicle) is “markedly attenuated”.
Regarding “rhRLX: recombinant human relaxin, identical in amino acid sequence to the product of the human H2 gene; A chain of 24, B chain of 29 amino acids”, the “mean serum concentration of rhRLX” value in data set [1] (female rats, day 5) was determined as 16.6 ± 1.5 ng/mL. Further, the “mean serum concentration of rhRLX” value in data set [1] (male rats, day 5, n=12) was determined as 12.3 ± 0.7 ng/mL. For the same substance, in data set [2], the “decrease of TGF-β-induced fibronectin over-expression” value stood at 28±6% and the “inhibition of TGF-β-induced collagen over-expression” value stood at 21±5%.
